The record followed here is article PMC11508974, “Computational Approach to Identifying New Chemical Entities as Elastase Inhibitors with Potential Antiaging Effects” (International Journal of Molecular Sciences, 2024).

The test has as its target T1, porcine pancreatic elastase (PPE) (Sus scrofa, UniProt P00772).
T1 construct: gene CELA1
As to the kind of experiment: Chromogenic elastase inhibition assay with SANA substrate, p-nitroaniline release. Format: biochemical.

In general, IC50 refers to the midpoint of a concentration-inhibition curve. Read a high IC50 as weaker potency in that assay.

T1 sequence (P00772 27-266): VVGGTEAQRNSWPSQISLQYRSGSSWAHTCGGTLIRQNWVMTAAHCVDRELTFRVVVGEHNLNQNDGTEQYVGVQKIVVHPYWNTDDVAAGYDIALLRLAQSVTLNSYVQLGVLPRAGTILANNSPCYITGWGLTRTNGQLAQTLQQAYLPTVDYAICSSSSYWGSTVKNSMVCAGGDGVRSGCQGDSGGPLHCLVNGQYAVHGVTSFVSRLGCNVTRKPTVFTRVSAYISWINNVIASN

Molecule `Cc1cc(C)cc(Cn2c(SCC(=O)Nc3ccc(C)cc3Cl)nc3ccccc32)c1` [compound 2, N-(2-chloro-4-methylphenyl)-2-[[1-[(3,5-dimethylphenyl)methyl]-1H-benzimidazol-2-yl]thio]acetamide] showed an IC50 of 60.4 ± 1.98 µM.
